These results are taken from EPA's ToxValDB 9.5 (doi:10.2903/j.efsa.2016.4432).

Each structure is given as a SMILES string.

The test system of data set [1] is Anas platyrhynchos. Particulars: short-term; oral; feed; mortality.
The subject of data set [2] is Apis mellifera. Particulars: acute, mortality.
Data set [3] relates to Colinus virginianus.
For data set [4], the system named is Cyprinodon variegatus.
The subject of data set [5] is Daphnia magna. Particulars: chronic/long-term; duration: 21 days; mortality.
Data set [6] concerns Folsomia candida. Particulars: chronic/long-term; mortality.
The test system of data set [7] is Mus musculus. To be noted: acute; mortality.
In data set [8] the test system is Oryctolagus sp. To be noted: developmental; development.
Data set [9] concerns Rattus norvegicus. Particulars: acute; oral; mortality.
In data set [10] the test system is Tagia sp. To be noted: chronic/long-term; growth.
The test system of data set [11] is Typhlodromus pyri. Briefly: LR50; higher = less toxic. To be noted: not reported; mortality.

On to `COCc1cnc(C2=NC(C)(C(C)C)C(=O)N2)c(C(=O)O)c1` (centres undefined) [Imazamox], for which the LD50 in [1] is more than 1930 mg/kg-day; in [2] (dermal), more than 58 µg/piece; in data set [2] (oral, unspecified), more than 40 µg/piece; in data set [3] (acute, oral, mortality) it was 3490 mg/kg-day; in data set [7], more than 5000 mg/kg-day; in [9], more than 5000 mg/kg-day. Also, the values for the no-observed-adverse-effect level (NOAEL) in data set [3] (reproduction developmental) and in data set [8] were 209 mg/kg-day and 300 mg/kg-day, respectively. This compound also yielded an LC50 in data set [4] (acute, duration: 96 hours, mortality) of more than 97 µg/mL. Also, the NOEC in data set [4] (chronic/long-term, duration: 35 days, other) is 1.22 mg/L; in data set [5], 137 mg/L; in data set [6], 3.36 mg/kg; in data set [10] it was 5.85 mg/kg. The compound also had an LR50 in [11] of 1340 mL/ha.

What is called NOAEL is the highest tested level that showed no adverse finding. Broadly, the LC50 is the concentration lethal to half of the exposed cells or organisms.
